# Results as given in BindingDB's records for doi:10.1002/cbic.201300347 (Fondazione Istituto Italiano Di Tecnologia, 2013).
# Where a name gives a salt, the structure may show the parent alone.
# Target: T1, Fatty-acid amide hydrolase 1 [33-574] (Rattus norvegicus, UniProt P97612)
# T1 construct: 33-574
# T1 sequence (P97612 whole entry): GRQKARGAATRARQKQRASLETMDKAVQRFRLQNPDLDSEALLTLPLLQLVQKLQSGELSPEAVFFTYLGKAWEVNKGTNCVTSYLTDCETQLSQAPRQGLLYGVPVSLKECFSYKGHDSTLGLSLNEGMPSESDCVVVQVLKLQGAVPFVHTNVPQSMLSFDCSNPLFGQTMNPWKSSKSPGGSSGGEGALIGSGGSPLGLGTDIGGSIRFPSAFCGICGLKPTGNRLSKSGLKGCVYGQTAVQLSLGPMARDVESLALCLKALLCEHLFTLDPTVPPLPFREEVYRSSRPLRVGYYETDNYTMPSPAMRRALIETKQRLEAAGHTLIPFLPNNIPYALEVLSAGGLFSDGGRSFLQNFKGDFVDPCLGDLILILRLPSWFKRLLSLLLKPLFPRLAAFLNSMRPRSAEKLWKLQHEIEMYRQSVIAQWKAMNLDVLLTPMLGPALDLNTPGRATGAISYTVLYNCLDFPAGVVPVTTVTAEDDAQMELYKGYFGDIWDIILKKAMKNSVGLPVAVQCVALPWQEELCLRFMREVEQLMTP
row,Structure (SMILES),IC50
1,FC(F)(F)c1ccccc1N1CCNCC1 [1‐[2‐(trifluoromethyl)phenyl]piperazine hydrochloride (Hit 1)],4.2 µM
2,"O[C@@H](c1ccccc1)C(F)(F)F [(1S)‐2,2,2‐trifluoro‐1‐phenylethanol (Hit 12)]",563 µM
3,"OC1(C(F)(F)F)CC(c2ccccc2)N=N1 (stereo unspecified) [5‐phenyl‐3‐(trifluoromethyl)‐2,4‐dihydropyrazol‐3‐ ol (Hit 6)]",32 µM
4,O=C(O)Cn1ccc(C(F)(F)F)n1 [[3‐(trifluoromethyl)pyrazol‐1‐yl]acetic acid (Hit 7)],147 µM
5,"Nc1cccc(C(=O)Nc2cc(=O)n(CC(F)(F)F)[nH]2)c1 [3‐amino‐N‐[5‐hydroxy‐1‐(2,2,2‐ trifluoroethyl)pyrazol‐3‐yl]benzamide (Hit 18)]",1320 µM
6,NCc1cccc(C(F)(F)F)c1 [[3‐(trifluoromethyl)phenyl]methanamine (Hit 8)],270 µM
7,"O=C(n1nc2ccccc2n1)C(F)(F)F [1‐(1,2,3‐benzotriazol‐2‐yl)‐2,2,2‐ trifluoroethanone (Hit 14)]",400 µM
8,"FC(F)(F)c1cc(-c2ccccc2)nc2ncnn12 [5‐phenyl‐7‐(trifluoromethyl)‐[1,2,4]triazolo[1,5‐ a]pyrimidine (Hit 15)]",110 µM
9,N#CCc1cccc(C(F)(F)F)c1 [2‐[3‐(trifluoromethyl)phenyl]acetonitrile (Hit 13)],720 µM
10,O=C(O)c1cc(=O)cc(C(F)(F)F)o1 [4‐oxo‐6‐(trifluoromethyl)pyran‐2‐carboxylic acid (Hit 10)],137 µM
11,Cc1ccc(OC(=O)NC2CCCCC2)cc1-c1cccc(C(N)=O)c1 [3‐(3‐carbamoylphenyl)‐4‐methylphenyl N‐ cyclohexylcarbamate (Compound 1)],0.06 µM
12,"O=C(c1ccc(Cl)cc1)C(F)(F)F [1‐(4‐chlorophenyl)‐2,2,2‐trifluoroethanone (Hit 3)]",26 µM
13,"O=C(Nc1cnc2[nH]ccc2c1)c1cccc(Cl)c1Cl [2,3‐dichloro‐N‐{1H‐pyrrolo[2,3‐b]pyridin‐5‐ yl}benzamide (Compound 2)]",0.095 µM
14,CS(=O)(=O)c1ccc(N)c(F)c1 [2‐fluoro‐4‐methanesulfonylaniline (Hit 4)],58 µM
15,Oc1cccc(C(F)(F)F)c1 [M‐trifluoromethylphenol (Hit 5)],450 µM
16,"Nc1nc(F)nc2c1ncn2C1O[C@H](CO)[C@@H](O)[C@H]1O (stereo partly drawn) [(3R,4S,5R)‐2‐(6‐amino‐2‐fluoropurin‐9‐yl)‐5‐ (hydroxymethyl)oxolane‐3,4‐diol (Hit 17)]",1130 µM
17,"OC(c1ccc(Cl)cc1)C(F)(F)F (stereo unspecified) [1‐(4‐chlorophenyl)‐2,2,2‐trifluoroethanol (Hit 11)]",143 µM
18,O=C(O)c1cccnc1Nc1cccc(C(F)(F)F)c1 [NSC_4488],162 µM
19,NC(=O)c1cccc(-c2cc(OC(=O)NC3CCCCC3)ccc2C(=O)O)c1,4 µM
20,"O=C1CCCc2c1cnc1nc(C(F)(F)F)nn21 [2‐(trifluoromethyl)‐7H,8H,9H‐[1,2,4]triazolo[1,5‐ a]quinazolin‐6‐one (Hit 2)]",3 µM
21,O=C(O)C1(C(F)(F)F)CCC1 [1‐(trifluoromethyl)cyclobutane‐1‐carboxylic acid (Hit 9)],465 µM
